Measured values taken from patent US12274775B2, “Fatty acid esters as anti-Malassezia agents” (SYMRISE AG, priority 2019, dated 2025).
In brackets after ≈: the same amount, converted by molar mass. Like-named read-outs stand apart in the source and are kept apart here.

What was measured:
M. globosa CBS 7705 = assay: Ester cleavage by Malassezia cells, GC quantification; assay type: cell-based; conditions: 32° C.
Description: (§1) These two species are the most frequently detected ones on human scalp and skin and their hydrolytic/lipolytic activities on fatty acid esters has not yet been investigated before.
(§2) Malassezia strains were cultivated on selective agar for pathogenic fungi (Merck) and overlaid with a thin layer of cold-sterilized olive oil. After 3 to 5 days, fungal cells were harvested and resuspended in the respective test substance. Cell numbers were determined using a Neubauer counting chamber (cf. Table 12). Sterile Petri dishes (diameter: 3 cm) were prepared containing selective agar for pathogenic fungi, overlaid with 100 μl of the test suspensions and incubated at 32° C.
(§3) After defined incubation times (0, 3, 6, 12, 24, 48, and 72 h), test suspensions were removed from the agar surface by rinsing with 1 ml chloroform and stored under cool conditions in gastight tubes until analysis. Chloroform was removed by evaporation at 30° C. in the fume hood and the remaining liquid mixed with 1 ml isopropanol, transferred in Eppendorf tubes and centrifuged. The supernatant was transferred to new Eppendorf tubes.
(§4) In order to analytically quantify esters and free fatty acid resulting from cleavage by Malassezia enzymes, gas chromatography was used.
(§5) For quantification (range 0.1-10 wt %) a multilevel calibration method with internal standard (ISTD, docosane [C22]; 500 mg in MtBE) was used. An equal amount of corresponding acid, ester and possible side products [0.2-50 mg/10 mL] were mixed with ISTD, diluted to an appropriate concentration and 1 μL [split1:50] was directly used for GC-analysis with the following conditions: GC Agilent 6890 with a 20 m ZB-Wax column [0.20 mm×0.20 μm], injector temperature of 250° C., detector temperature of 275° C., flow gas of 1.3 mL/min hydrogen [constant]. For temperature profile 60° C. to 240° C. with a heating rate of 9° C./min was used.

M. restricta CBS 7877 = assay: as above; assay type: cell-based; conditions: 32° C.
Description: as §1, §2, §3, §4, §5

[1] = Ester cleavage assays without Malassezia cells; assay type: physicochemical; conditions: until the end of the experiment after 72 hours
Description: as §2, §3, §4
For quantification (range 0.1-10 wt %) a multilevel calibration method with internal standard (ISTD, docosane [C22]; 500 mg in MtBE) was used. […]

M. pachydermatis = assay: Agar dilution test on mDixon agar, minimal inhibitory concentration (MIC); assay type: cell-based; conditions: Malassezia pachydermatis, agar dilution, pH 5.5, 32° C., up to 14 days, read-out: Minimal inhibitory concentration (MIC)
Description: (§6) The fatty acid esters and their mixtures were tested for growth inhibition against Malassezia. The following reference strains were included:
(§7) Tests were performed on solid media using agar dilution tests. Stock solutions of test substances were prepared in mDixon-Agar (cf. Table 2). Lower test concentrations were obtained by diluting stock solutions with fresh agar.
(§8) Preparation of liquid agar was carried out in temperated water bath. Required amounts of test substances were weighed in 130 ml of Dixon Agar and mixed with fresh Dixon-Agar to reach desired concentrations of test substances. Agar solutions with test substances were then poured into 24 well-plates. The pH value in all assays was maintained at 5.5. Preparation of test substances was done on weight per volume base. All results are expressed in parts per million (1 ppm=0.0001%).
(§9) Briefly, Malassezia strains were cultivated on selective agar for pathogenic fungi (Merck) and overlaid with a thin layer of cold-sterilized olive oil. […] Incubation was carried out at 32° C. over a maximal duration of 14 days with regular inspection and documentation of growth status. Minimal inhibitory concentrations (MICs) were determined as the lowest concentrations of test compound without visible growth. Each experiment was repeated to confirm results.

M. restricta = assay: as above; assay type: cell-based; conditions: 336 h; M. restricta CBS 7877; agar dilution, pH 5.5, 32° C., up to 14 days; read-out: Minimal inhibitory concentration (MIC)
Description: as §6, §7, §8, §9

M. furfur = assay: as above; assay type: cell-based; conditions: Malassezia furfur, agar dilution, pH 5.5, 32° C., up to 14 days, read-out: Minimal inhibitory concentration (MIC)
Description: as §6, §7, §8, §9

M. sympodialis = assay: as above; assay type: cell-based; conditions: 336 h, up to 14 days, read-out: Minimal inhibitory concentration (MIC)
Description: as §6, §7, §8, §9

M. globosa = assay: as above; assay type: cell-based; conditions: Malassezia globosa, agar dilution, pH 5.5, 32° C., up to 14 days, read-out: Minimal inhibitory concentration (MIC)
Description: as §6, §7, §8, §9

[2] = M. globosa CBS 7705, after 6 hours
[3] = M. globosa CBS 7705, after 12 hours
[4] = M. restricta CBS 7877, after 6 hours
[5] = M. restricta CBS 7877, after 12 hours
[6] = CBS1879, 336 h, M. pachydermatis CBS 1879
[7] = CBS1878, 336 h, M. furfur CBS 1878
[8] = CBS7019, 336 h, M. furfur CBS 7019
[9] = pH 5.5, M. sympodialis ATCC 42132, pH 5.5, 32° C.
[10] = pH 5.5, M. sympodialis CBS 7222, pH 5.5, 32° C.
[11] = pH 5.5, M. sympodialis CBS 7979, pH 5.5, 32° C.
[12] = pH 5.5, M. sympodialis DSM 6171, pH 5.5, 32° C.
[13] = CBS7705, 336 h, M. globosa CBS 7705
[14] = CBS7966, 336 h, M. globosa CBS 7966

Row | Compound | ester cleaved (M. globosa CBS 7705; [2]) [%] | ester cleaved (M. globosa CBS 7705; [3]) [%] | ester cleaved (M. restricta CBS 7877; [4]) [%] | ester cleaved (M. restricta CBS 7877; [5]) [%] | free fatty acid detected in assays without Malassezia cells [1] | MIC (M. pachydermatis; 336 h, M. pachydermatis 1892) [µg/mL] | MIC (M. pachydermatis; [6]) [µg/mL] | MIC (M. restricta) [µg/mL] | MIC (M. furfur; [7]) [µg/mL] | MIC (M. furfur; [8]) [µg/mL] | MIC (M. sympodialis; [9]) [µg/mL] | MIC (M. sympodialis; [10]) [µg/mL] | MIC (M. sympodialis; [11]) [µg/mL] | MIC (M. sympodialis; [12]) [µg/mL] | MIC (M. globosa; 336 h, M. globosa PM1) [µg/mL] | MIC (M. globosa; [13]) [µg/mL] | MIC (M. globosa; [14]) [µg/mL]
1 | CCCCCCCC(=O)OCCCO [3-Hydroxypropyl caprylate] | 75 | 90 | 21 | 65 | no caprylic acid was detected | 500 (≈ 2.47 mM) | 330 (≈ 1.63 mM) | 1000 (≈ 4.94 mM) | 2000 (≈ 9.89 mM) | 2000 (≈ 9.89 mM) | 1000 (≈ 4.94 mM) | 1000 (≈ 4.94 mM) | 2000 (≈ 9.89 mM) | 2000 (≈ 9.89 mM) | 500 (≈ 2.47 mM) | 1000 (≈ 4.94 mM) | 1000 (≈ 4.94 mM)
2 | C=CCCCCCCCCC(=O)OCCCO [3-Hydroxypropyl undecylenoate] | 95 | 99.5 | 56 | 96 | no undecylenic acid was detected | 1000 (≈ 4.13 mM) | 2000 (≈ 8.25 mM) | 1000 (≈ 4.13 mM) | 8000 (≈ 33 mM) | 8000 (≈ 33 mM) | 2000 (≈ 8.25 mM) | 4000 (≈ 16.5 mM) | 1000 (≈ 4.13 mM) | 2000 (≈ 8.25 mM) | 2000 (≈ 8.25 mM) | 1000 (≈ 4.13 mM) | 2000 (≈ 8.25 mM)
